The subject of data set [1] is Mus musculus. In words: Toxicity in CD1 mouse assessed as straub tail response at 6.7 umol/kg, iv. In kind it is organism-based. The conditions noted are these: in vivo.
The test system of data set [2] is Mus musculus. Briefly: Toxicity in CD1 mouse assessed as hyperactivity at 3.3 umol/kg, iv. In kind it is organism-based. The conditions noted are these: in vivo.
In data set [3] the test system is Mus musculus. Briefly: Toxicity in CD1 mouse assessed as straub tail response at 3.3 umol/kg, iv. In kind it is organism-based. The conditions noted are these: in vivo.
Data set [4] concerns the target Neuronal acetylcholine receptor subunit alpha-2 (Rattus norvegicus, UniProt P12389+P12390). In words: Displacement of [3H]epibatidine from rat alpha2beta2 nAChR expressed in HEK293 cells. In kind it is cell-based. Background: Displacement assays read how much labelled ligand stays bound in the presence of the test substance.
The target in data set [5] is Neuronal acetylcholine receptor; alpha3/beta4 (Rattus norvegicus, UniProt P04757+P12392). In words: Displacement of [3H]epibatidine from rat alpha3beta4 nAChR expressed in HEK293 cells. In kind it is cell-based.
Data set [6] concerns Mus musculus. In words: Toxicity in CD1 mouse assessed as circling behavior at 1.7 umol/kg, iv. In kind it is organism-based. The conditions noted are these: in vivo.
The subject of data set [7] is Mus musculus. In words: Toxicity in CD1 mouse assessed as circling behavior at 0.8 umol/kg, iv. It is filed as organism-based. The conditions noted are these: in vivo.
Data set [8] deals with Mus musculus. In words: Toxicity in CD1 mouse assessed as straub tail response at 1.7 umol/kg, iv. In kind it is organism-based. The conditions noted are these: in vivo.
Data set [9] deals with Mus musculus. Briefly: Toxicity in CD1 mouse assessed as straub tail response at 0.8 umol/kg, iv. In kind it is organism-based. The conditions noted are these: in vivo.
In data set [10] the test system is Mus musculus. In words: Toxicity in CD1 mouse assessed as seizures at 6.7 umol/kg, iv. It is filed as organism-based. The conditions noted are these: in vivo.
A short description of data set [11]: Half life in rhesus monkey thalamus. In kind it is ADME, organism-based, Macaca mulatta.
Data set [12] has as its target Neuronal acetylcholine receptor; alpha2/beta4 (Rattus norvegicus, UniProt P12389+P12392). Briefly: Displacement of [3H]epibatidine from rat alpha2beta4 nAChR expressed in HEK293 cells. It is filed as cell-based.
Data set [13] deals with Neuronal acetylcholine receptor; alpha3/beta2 (Rattus norvegicus, UniProt P04757+P12390). In words: Displacement of [3H]epibatidine from rat alpha3beta2 nAChR expressed in HEK293 cells. In kind it is cell-based.
Data set [14] concerns Mus musculus. Briefly: Toxicity in CD1 mouse assessed as straub tail response at 1.3 umol/kg, iv. In kind it is organism-based. The conditions noted are these: in vivo.
For data set [15], the system named is Mus musculus. Briefly: Toxicity in CD1 mouse assessed as seizures at 1.3 umol/kg, iv. In kind it is organism-based. The conditions noted are these: in vivo.
Data set [16] concerns Mus musculus. Briefly: Toxicity in CD1 mouse assessed as mortality at 2.0 umol/kg, iv. In kind it is organism-based. The conditions noted are these: in vivo.
The nature of data set [17]: Metabolic stability in CD1 mouse blood at 1.5 MBq, iv after 30 mins. It is filed as ADME, organism-based. The conditions noted are these: read-out: Stability.
Data set [18] is described as follows: Half life in iv dosed baboon thalamus. In kind it is ADME, organism-based. The conditions noted are these: papio anubis.
Data set [19] can be described thus: Metabolic stability in CD1 mouse brain at 1.5 MBq, iv after 30 mins. In kind it is ADME, organism-based. The conditions noted are these: read-out: Stability.
Data set [20] is described as follows: Metabolic stability in iv dosed baboon blood after 60 mins. In kind it is ADME, organism-based. The conditions noted are these: papio anubis, read-out: Stability.
A short description of data set [21]: Lipophilicity, log D at pH 7.4. It is filed as physicochemical. The conditions noted are these: buffer.
Data set [22] is described as follows: Displacement of [3H]epibatidine from nAChR in rat cerebral cortex membrane. It is filed as cell membranes.
For data set [23], the target named is Neuronal acetylcholine receptor subunit alpha-6 (Rattus norvegicus, UniProt P12390+P43143). Briefly: Displacement of [3H]epibatidine from rat alpha6beta2 nAChR expressed in HEK293 cells. In kind it is cell-based.
Data set [24] has as its target Neuronal acetylcholine receptor; alpha4/beta2 (Rattus norvegicus, UniProt P09483+P12390). Briefly: Displacement of [3H]epibatidine from rat alpha4beta2 nAChR expressed in HEK293 cells. It is filed as cell-based.
Data set [25] concerns the target Neuronal acetylcholine receptor; alpha4/beta4 (Rattus norvegicus, UniProt P09483+P12392). In words: Displacement of [3H]epibatidine from rat alpha4beta4 nAChR expressed in HEK293 cells. It is filed as cell-based.
Data set [26] has as its system Mus musculus. In words: Toxicity in CD1 mouse at 0.2 umol/kg, iv. In kind it is organism-based. The conditions noted are these: in vivo.
Data set [27] has as its system Mus musculus. Briefly: Toxicity in CD1 mouse at 0.002 umol/kg, iv. In kind it is organism-based. The conditions noted are these: in vivo.
Data set [28] relates to Mus musculus. Briefly: Toxicity in CD1 mouse at 0.05 umol/kg, iv. In kind it is organism-based. The conditions noted are these: in vivo.
Data set [29] deals with Mus musculus. Briefly: Toxicity in CD1 mouse assessed as reduced locomotor activity at 2.0 umol/kg, iv. It is filed as organism-based. The conditions noted are these: in vivo.
Data set [30] deals with T1, Neuronal acetylcholine receptor; alpha4/beta2 (Homo sapiens, UniProt P17787+P43681). Briefly: Binding affinity to human alpha4beta2 nAChR expressed in human SHEP1 cells. In kind it is cell-based.
The target of data set [31] is T1, Neuronal acetylcholine receptor; alpha4/beta2. In words: Antagonist activity at human alpha4beta2 nAChR expressed in human SHEP1 cells assessed as reduction in peak amplitude at 1 uM by whole cell patch clamp technique in presence of acetylcholine. In kind it is functional, cell-based. Further details: scale not given: the % may be the effect or the level left. For orientation: In patch-clamp work, channel activity is measured electrically.

The structures appear in SMILES notation.

Sequence of Neuronal acetylcholine receptor; alpha3/beta4 (P04757 whole entry): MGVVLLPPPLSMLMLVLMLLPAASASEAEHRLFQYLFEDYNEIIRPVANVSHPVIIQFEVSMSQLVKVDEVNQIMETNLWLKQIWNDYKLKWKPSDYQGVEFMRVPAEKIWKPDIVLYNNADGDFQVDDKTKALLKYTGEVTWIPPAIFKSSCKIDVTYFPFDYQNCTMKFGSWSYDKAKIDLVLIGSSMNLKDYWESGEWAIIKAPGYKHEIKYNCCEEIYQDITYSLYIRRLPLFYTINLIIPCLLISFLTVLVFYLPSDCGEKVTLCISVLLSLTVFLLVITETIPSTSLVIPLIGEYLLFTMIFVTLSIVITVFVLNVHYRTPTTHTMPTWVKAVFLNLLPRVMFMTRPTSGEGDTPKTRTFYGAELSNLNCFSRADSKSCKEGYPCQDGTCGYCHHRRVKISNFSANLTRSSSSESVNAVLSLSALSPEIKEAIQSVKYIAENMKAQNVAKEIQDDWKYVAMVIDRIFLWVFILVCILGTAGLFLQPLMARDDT
Sequence of Neuronal acetylcholine receptor; alpha3/beta4 (P12392 whole entry): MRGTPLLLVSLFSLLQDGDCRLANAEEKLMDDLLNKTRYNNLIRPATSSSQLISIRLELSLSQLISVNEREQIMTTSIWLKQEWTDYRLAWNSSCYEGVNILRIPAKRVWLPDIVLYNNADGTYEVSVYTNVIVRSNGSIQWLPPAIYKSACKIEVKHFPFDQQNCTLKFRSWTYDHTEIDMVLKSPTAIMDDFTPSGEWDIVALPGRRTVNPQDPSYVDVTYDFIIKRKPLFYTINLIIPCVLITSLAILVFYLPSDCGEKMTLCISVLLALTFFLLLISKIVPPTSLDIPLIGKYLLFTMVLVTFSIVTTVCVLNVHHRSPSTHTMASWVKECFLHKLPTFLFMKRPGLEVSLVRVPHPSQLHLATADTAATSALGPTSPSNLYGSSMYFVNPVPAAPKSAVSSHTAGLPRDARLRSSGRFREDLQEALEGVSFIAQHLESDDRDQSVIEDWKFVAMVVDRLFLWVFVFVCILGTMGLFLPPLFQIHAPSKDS
Sequence of Neuronal acetylcholine receptor; alpha3/beta2 (P04757 whole entry): as the sequence (P04757 whole entry) above
Sequence of Neuronal acetylcholine receptor; alpha3/beta2 (P12390 whole entry): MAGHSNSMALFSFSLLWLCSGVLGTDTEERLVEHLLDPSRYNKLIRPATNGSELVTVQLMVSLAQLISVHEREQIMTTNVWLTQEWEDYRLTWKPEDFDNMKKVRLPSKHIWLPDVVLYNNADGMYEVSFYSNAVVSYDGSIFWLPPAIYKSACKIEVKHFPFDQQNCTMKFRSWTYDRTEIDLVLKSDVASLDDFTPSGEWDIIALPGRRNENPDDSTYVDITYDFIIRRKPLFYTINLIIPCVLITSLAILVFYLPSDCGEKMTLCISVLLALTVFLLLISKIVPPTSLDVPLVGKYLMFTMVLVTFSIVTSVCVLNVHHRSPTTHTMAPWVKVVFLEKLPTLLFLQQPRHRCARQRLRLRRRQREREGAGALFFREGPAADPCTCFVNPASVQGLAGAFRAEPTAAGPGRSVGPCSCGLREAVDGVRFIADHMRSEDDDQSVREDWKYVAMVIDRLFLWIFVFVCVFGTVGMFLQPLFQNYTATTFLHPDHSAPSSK
Sequence of Neuronal acetylcholine receptor subunit alpha-6 (P43143 whole entry, one chain of several): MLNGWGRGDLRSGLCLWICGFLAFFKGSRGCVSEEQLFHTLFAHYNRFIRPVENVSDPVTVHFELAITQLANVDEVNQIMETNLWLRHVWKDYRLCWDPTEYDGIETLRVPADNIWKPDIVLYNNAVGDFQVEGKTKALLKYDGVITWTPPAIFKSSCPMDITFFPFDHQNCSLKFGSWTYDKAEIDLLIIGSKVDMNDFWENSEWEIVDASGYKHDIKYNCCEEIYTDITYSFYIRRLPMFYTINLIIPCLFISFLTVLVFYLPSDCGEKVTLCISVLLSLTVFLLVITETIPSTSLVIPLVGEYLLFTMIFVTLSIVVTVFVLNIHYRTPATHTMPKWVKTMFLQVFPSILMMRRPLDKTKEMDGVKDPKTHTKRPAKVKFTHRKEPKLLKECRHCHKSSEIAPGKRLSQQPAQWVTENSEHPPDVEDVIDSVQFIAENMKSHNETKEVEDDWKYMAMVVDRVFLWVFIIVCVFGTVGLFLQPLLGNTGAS
Sequence of Neuronal acetylcholine receptor; alpha2/beta4 (P12389 whole entry): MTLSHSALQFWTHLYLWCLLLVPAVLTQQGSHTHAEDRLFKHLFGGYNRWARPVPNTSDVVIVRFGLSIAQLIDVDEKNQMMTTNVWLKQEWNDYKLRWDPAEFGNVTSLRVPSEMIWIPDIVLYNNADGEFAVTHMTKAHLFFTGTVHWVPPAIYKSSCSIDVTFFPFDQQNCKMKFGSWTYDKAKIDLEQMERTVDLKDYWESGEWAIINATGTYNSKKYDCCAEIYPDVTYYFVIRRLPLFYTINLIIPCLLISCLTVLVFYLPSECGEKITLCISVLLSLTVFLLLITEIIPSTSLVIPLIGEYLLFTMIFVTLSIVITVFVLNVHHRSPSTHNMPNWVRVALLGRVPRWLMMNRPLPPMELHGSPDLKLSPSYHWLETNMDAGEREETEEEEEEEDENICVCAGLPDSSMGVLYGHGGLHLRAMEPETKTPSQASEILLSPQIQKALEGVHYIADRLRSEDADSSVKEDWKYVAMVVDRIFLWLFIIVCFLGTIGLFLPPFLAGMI
Sequence of Neuronal acetylcholine receptor; alpha2/beta4 (P12392 whole entry): as the sequence (P12392 whole entry) above
Sequence of Neuronal acetylcholine receptor subunit alpha-2 (P12389 whole entry, one chain of several): as the sequence (P12389 whole entry) above
Sequence of Neuronal acetylcholine receptor; alpha4/beta4 (P09483 whole entry): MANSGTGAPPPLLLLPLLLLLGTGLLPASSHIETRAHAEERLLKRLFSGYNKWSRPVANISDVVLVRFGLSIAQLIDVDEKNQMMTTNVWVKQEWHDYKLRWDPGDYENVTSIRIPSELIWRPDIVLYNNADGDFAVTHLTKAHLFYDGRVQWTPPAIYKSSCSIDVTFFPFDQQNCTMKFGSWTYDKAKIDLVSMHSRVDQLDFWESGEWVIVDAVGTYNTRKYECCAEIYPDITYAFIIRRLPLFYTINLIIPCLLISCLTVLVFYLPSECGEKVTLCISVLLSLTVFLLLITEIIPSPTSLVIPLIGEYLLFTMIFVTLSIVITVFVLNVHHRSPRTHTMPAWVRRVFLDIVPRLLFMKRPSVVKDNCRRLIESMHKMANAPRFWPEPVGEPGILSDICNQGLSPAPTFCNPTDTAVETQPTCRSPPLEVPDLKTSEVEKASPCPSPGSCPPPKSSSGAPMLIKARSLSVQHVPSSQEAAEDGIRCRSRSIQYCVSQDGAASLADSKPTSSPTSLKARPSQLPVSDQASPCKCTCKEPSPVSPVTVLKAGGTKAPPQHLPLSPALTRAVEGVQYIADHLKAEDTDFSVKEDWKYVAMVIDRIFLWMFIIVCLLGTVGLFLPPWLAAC
Sequence of Neuronal acetylcholine receptor; alpha4/beta4 (P12392 whole entry): as the sequence (P12392 whole entry) above
Sequence of Neuronal acetylcholine receptor; alpha4/beta2 (Rattus norvegicus, UniProt P09483+P12390) (P09483 whole entry): as the sequence (P09483 whole entry) above
Sequence of Neuronal acetylcholine receptor; alpha4/beta2 (Rattus norvegicus, UniProt P09483+P12390) (P12390 whole entry): as the sequence (P12390 whole entry) above
T1 sequence (P17787 whole entry): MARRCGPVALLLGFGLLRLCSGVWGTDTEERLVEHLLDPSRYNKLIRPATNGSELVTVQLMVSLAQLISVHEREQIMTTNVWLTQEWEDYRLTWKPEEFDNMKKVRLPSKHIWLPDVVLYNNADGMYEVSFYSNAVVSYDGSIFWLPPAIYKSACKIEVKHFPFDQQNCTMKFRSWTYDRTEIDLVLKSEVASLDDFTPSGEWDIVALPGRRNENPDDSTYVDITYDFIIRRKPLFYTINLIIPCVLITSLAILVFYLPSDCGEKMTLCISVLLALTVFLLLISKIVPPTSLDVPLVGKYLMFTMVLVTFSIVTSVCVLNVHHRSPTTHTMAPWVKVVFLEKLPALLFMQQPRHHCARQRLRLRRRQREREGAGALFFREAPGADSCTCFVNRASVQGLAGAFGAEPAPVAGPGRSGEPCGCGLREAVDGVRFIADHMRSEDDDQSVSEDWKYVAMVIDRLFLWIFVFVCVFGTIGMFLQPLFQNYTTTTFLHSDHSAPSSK
T1 sequence (P43681 whole entry): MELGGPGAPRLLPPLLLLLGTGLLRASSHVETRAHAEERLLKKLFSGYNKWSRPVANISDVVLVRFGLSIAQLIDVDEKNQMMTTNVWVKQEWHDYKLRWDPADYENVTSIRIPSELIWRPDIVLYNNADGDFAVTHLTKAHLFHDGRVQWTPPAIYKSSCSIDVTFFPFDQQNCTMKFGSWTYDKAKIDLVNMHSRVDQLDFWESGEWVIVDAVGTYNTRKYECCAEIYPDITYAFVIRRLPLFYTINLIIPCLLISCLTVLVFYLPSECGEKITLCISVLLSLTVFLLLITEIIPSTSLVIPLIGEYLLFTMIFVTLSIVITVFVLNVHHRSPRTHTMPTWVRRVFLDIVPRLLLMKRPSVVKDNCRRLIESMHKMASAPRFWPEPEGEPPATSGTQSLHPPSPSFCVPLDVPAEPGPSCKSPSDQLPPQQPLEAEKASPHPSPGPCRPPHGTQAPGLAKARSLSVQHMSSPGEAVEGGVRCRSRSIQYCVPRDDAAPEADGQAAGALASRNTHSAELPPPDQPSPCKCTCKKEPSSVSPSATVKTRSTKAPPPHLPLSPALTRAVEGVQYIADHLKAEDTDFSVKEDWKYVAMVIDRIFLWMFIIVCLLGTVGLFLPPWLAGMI

Broadly, the Ki is a measure of affinity in units of concentration, obtained from inhibition or displacement. As usually defined, the half-life is how long it takes for the measured level to halve. Turning to `[18F]c1ncccc1OC[C@@H]1CCN1`, the Activity result in data set [1], in [2], in [3], in data set [6], in [7] and in data set [8] was “Toxic” each time. Also, the Activity result in data set [9] and in data set [10] was “Toxic” throughout. For the same compound, the inhibitory constant (Ki) in data set [4] was 1.44 nM; in data set [5], 3680 nM; in [12], 181 nM; in [13], 3.02 nM. This compound also returned a half-life in data set [11] of 4.5 h.

As for `[18F]c1ccc(OC[C@@H]2CCN2)cn1`, the Activity entry in data set [14], in data set [15] and in data set [16] was “Toxic” throughout.

Consider `CN1[C@@H]2CC[C@@H]1[C@@H](c1cncc(-c3cccc([18F])n3)c1)C2`, for which the remaining at 0.5 h came out at 12.3% in [17] and 92.5% in [19]. The half-life in data set [18] came out at 1.33 h. Moreover, the remaining at 1 h in data set [20] was determined as 14.9%.

In [18], `CN1[C@@H]2CC[C@@H]1[C@@H](c1cncc(-c3cccnc3[18F])c1)C2` displayed a half-life of 3.5 h.

What is called logD is lipophilicity at a set pH, counting ionised and neutral species. The compound `CN1[C@@H]2CC[C@@H]1[C@@H](c1cncc(-c3cccnc3F)c1)C2` (racemic) had a logD in [21] of 0.67. In data set [22], this compound yielded a Ki of 0.16 nM.

The compound `CN1[C@@H]2CC[C@@H]1[C@@H](c1cncc(-c3ccnc(F)c3)c1)C2` (racemic) showed a logD in [21] of 0.74.

The compound `CN1C2CCC1C(c1cncc(-c3ccc([18F])nc3)c1)C2` (single isomer, unassigned; (+)) yielded a Ki in data set [22] of 2.1 nM.

In the case of `CN1C2CCC1C(c1cncc(-c3ccc(F)nc3)c1)C2` (single isomer, unassigned; (-)), the Ki was 0.009 nM in data set [4]; 30 nM in data set [5]; 0.047 nM in data set [23]; 0.51 nM in data set [12]; 0.093 nM in data set [13]; 0.05 nM in data set [22]. Moreover, the figures for the Ki in data set [24] and in data set [25] were 0.011 nM and 0.31 nM, respectively. Moreover, the logD in data set [21] came to 0.46.

In [22], `CN1[C@@H]2CC[C@@H]1[C@@H](c1cncc(-c3ccnc(F)c3)c1)C2` (stereo in doubt; (+)-6a) came in with an inhibitory constant (Ki) of 1.29 nM.

As for `CN1[C@@H]2CC[C@@H]1[C@@H](c1cncc(-c3cccnc3F)c1)C2` (stereo in doubt; (+)-6b), in data set [22], the Ki came to 7.35 nM.

In data set [22], `CN1[C@@H]2CC[C@@H]1[C@@H](c1cncc(-c3cccc(F)n3)c1)C2` (stereo in doubt; (+)-6c) returned a Ki of 4.67 nM.

For `CN1[C@@H]2CC[C@@H]1[C@@H](c1cncc(-c3ccnc(F)c3)c1)C2` (stereo in doubt; (-)-6a), the Ki in data set [4] was 0.015 nM; in data set [5], 39 nM; in data set [23] it was 0.031 nM; in data set [12], 0.84 nM; in data set [13], 0.13 nM; in data set [22], 0.11 nM. The inhibition constant Ki in data set [24] was 0.019 nM; in data set [25], 0.58 nM.

In the case of `CN1[C@@H]2CC[C@@H]1[C@@H](c1cncc(-c3cccnc3F)c1)C2` (stereo in doubt; (-)-6b), the Ki came out at 0.034 nM in [4]; 41 nM in [5]; 0.021 nM in data set [23]; 0.66 nM in data set [12]; 0.68 nM in [13]; 0.05 nM in data set [22]. Besides, the Ki in data set [24] came out at 0.058 nM; in data set [25], 0.71 nM.

Broadly, the Kd is the concentration at which binding is half-saturated. As for `CN1[C@@H]2CC[C@@H]1[C@@H](c1cncc(-c3cccc(F)n3)c1)C2` (stereo in doubt; (-)-6c) [listing 1 of 2 here], the Activity entry in [26], in data set [27], in data set [28] and in data set [29] was “Non-toxic” in each case. Besides, the Ki stood at 0.26 nM in data set [4]; 310 nM in [5]; 0.95 nM in data set [23]; 7.8 nM in data set [12]; 4 nM in data set [13]; 0.31 nM in data set [22]. For the same compound, the values for the Ki in data set [24] and in data set [25] were 0.26 nM and 6.2 nM, respectively. In data set [21], this compound displayed a logD of 0.99. The affinity in data set [30], expressed as Kd, was 0.54 nM.

For `CN1[C@@H]2CC[C@@H]1[C@@H](c1cncc(-c3cccc(F)n3)c1)C2` (stereo in doubt; (-)-6c) [listing 2 of 2 here], in data set [31], the Activity worked out at 14%.

For `Clc1ccc(C2CC3CCC2N3)cn1` (centres undefined) [EPIBATIDINE], in [22], the Ki amounted to 0.045 nM.

The values above are taken from ChEMBL document CHEMBL1155821, “Discovery of (-)-7-methyl-2-exo-[3'-(6-[18F]fluoropyridin-2-yl)-5'-pyridinyl]-7-azabicyclo[2.2.1]heptane, a radiolabeled antagonist for cerebral nicotinic acetylcholine receptor (alpha4beta2-nAChR) with optimal positron emission tomography imaging properties” (J Med Chem, 2008).
